Five molecules from ChEMBL document CHEMBL1201862, “PubChem BioAssay data set” (2004) can be followed below.

What all share (format): functional
The target in one experiment is T1, Cysteine protease ATG4B (Homo sapiens, UniProt Q9Y4P1).
T1 sequence (Q9Y4P1 whole entry): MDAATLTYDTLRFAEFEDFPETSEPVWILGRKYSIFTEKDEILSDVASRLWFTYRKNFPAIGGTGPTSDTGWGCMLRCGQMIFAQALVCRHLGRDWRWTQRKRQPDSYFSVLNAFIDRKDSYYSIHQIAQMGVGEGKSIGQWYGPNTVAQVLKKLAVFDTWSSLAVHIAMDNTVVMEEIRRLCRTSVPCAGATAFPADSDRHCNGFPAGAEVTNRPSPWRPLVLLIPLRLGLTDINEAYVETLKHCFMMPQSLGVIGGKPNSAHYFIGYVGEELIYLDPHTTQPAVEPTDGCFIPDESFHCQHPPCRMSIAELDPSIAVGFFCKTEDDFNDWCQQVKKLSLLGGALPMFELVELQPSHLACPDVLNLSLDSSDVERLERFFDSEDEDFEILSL
Description: ATG4B protease inhibitors, dose response, biochemical, fluorescence, set 2 (AID 588584).

For another experiment, the target named is Phospholipase A2 (Homo sapiens, UniProt P04054). The experiment is described as follows: PLA2 enzyme inhibitors, dose response, counter-screen for ATG4B inhibitor project, biochemical, set 2 (AID 588586).
Sequence of Phospholipase A2 (P04054 whole entry): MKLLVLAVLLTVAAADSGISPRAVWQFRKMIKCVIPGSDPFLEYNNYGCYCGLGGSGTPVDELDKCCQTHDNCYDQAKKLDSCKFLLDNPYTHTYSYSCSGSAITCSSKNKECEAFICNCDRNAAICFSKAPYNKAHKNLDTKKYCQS
Experiment [1] has as its target T2, Kappa-type opioid receptor (Homo sapiens, UniProt P41145).
The target in experiment [2] is T3, Delta-type opioid receptor (Homo sapiens, UniProt P41143). Description: HTS Image-Based Screen for Agonists of the DOR Receptor. [Related pubchem assays (depositor defined):AID1777, AID1786, AID2133].
T3 sequence (P41143 whole entry): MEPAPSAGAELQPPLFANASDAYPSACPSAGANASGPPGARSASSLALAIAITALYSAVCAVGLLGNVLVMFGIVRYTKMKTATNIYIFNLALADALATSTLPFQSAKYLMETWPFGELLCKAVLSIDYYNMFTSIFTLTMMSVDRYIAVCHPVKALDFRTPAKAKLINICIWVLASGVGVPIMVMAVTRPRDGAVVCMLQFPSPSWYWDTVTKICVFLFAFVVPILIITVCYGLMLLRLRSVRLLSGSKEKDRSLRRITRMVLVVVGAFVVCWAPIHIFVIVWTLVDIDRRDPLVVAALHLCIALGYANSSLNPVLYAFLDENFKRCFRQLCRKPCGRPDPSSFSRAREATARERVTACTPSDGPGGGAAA
Experiment [3] deals with T2, Kappa-type opioid receptor. This is another data set of the same source.
Experiment [4] deals with T3, Delta-type opioid receptor. The experiment is described as follows: HTS Image-Based Screen for Antagonists of the DOR Receptor. [Related pubchem assays (depositor defined):AID1777, AID1785, AID1786, AID2133].
The target in a further experiment is Beta-galactosidase (Escherichia coli, UniProt Q8VNN2).
Sequence of Beta-galactosidase (Q8VNN2 whole entry): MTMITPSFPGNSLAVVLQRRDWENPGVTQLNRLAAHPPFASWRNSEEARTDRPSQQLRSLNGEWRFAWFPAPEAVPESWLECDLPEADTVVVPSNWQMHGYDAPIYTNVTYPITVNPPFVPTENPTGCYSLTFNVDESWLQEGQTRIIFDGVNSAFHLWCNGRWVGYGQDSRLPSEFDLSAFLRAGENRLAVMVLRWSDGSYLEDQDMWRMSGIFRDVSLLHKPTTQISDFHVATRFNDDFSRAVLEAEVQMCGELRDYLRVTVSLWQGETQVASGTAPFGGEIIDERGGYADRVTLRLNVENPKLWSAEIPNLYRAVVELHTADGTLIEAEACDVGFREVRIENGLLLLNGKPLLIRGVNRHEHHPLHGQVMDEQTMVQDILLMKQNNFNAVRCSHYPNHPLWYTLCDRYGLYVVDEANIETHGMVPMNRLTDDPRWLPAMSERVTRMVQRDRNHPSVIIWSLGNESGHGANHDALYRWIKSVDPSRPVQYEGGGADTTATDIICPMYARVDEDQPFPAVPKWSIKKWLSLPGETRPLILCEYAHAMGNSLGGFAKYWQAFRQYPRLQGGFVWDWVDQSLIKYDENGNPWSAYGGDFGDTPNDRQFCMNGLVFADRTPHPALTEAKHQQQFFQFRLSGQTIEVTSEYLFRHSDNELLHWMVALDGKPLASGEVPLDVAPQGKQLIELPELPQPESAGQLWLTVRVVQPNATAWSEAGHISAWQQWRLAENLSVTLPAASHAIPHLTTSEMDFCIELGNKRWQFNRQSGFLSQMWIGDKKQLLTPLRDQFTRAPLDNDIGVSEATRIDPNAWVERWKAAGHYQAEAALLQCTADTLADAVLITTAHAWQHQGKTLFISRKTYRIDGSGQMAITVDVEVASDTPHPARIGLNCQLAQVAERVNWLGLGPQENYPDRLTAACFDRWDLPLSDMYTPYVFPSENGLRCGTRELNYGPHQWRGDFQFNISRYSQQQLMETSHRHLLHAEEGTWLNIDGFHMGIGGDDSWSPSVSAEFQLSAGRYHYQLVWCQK
The target in experiment [5] is T4, Mu-type opioid receptor (Homo sapiens, UniProt P35372). Description: HTS Image-Based Screen for Agonists of the MOR Receptor. [Related pubchem assays (depositor defined):AID1777, AID1785, AID1786, AID2133].
T4 sequence (P35372 whole entry): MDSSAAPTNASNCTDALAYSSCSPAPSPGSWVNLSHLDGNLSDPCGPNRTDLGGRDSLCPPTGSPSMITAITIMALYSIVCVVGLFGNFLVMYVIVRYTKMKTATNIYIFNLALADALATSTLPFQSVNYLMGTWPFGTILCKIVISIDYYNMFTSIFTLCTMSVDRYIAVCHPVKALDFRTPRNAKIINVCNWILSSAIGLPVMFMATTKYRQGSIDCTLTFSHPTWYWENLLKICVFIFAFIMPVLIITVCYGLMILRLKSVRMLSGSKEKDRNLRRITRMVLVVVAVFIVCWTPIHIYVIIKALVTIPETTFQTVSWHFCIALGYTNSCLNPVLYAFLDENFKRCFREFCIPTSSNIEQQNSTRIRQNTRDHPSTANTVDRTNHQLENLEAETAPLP
Experiment [6] addresses T5, Tyrosine-protein phosphatase non-receptor type 22 (Homo sapiens, UniProt Q9Y2R2).
T5 sequence (Q9Y2R2 whole entry): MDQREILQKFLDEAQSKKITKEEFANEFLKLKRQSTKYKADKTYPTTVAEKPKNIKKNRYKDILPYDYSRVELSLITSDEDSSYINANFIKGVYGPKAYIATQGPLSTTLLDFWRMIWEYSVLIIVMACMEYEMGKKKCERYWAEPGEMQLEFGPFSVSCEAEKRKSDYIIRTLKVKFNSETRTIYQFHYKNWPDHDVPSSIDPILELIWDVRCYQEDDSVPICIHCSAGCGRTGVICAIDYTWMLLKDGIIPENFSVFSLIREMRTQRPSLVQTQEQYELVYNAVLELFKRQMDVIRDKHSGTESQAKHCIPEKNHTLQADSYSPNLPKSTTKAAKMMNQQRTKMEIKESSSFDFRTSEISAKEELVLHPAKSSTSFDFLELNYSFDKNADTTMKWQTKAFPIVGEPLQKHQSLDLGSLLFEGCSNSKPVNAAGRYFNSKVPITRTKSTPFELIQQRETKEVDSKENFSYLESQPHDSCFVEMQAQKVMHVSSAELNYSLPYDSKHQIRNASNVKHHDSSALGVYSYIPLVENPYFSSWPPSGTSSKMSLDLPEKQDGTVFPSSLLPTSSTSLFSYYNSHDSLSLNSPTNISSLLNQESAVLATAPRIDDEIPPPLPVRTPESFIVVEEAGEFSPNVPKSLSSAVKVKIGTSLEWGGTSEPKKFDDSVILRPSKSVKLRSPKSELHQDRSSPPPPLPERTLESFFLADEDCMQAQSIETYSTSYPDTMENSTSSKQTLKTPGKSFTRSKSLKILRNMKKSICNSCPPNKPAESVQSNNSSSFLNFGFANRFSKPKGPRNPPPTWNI

Experiment [7] concerns the target T5, Tyrosine-protein phosphatase non-receptor type 22. This is another data set of the same source.
The target in experiment [8] is T6, Tyrosine-protein phosphatase non-receptor type 7 (Homo sapiens, UniProt P35236).
T6 sequence (P35236 whole entry): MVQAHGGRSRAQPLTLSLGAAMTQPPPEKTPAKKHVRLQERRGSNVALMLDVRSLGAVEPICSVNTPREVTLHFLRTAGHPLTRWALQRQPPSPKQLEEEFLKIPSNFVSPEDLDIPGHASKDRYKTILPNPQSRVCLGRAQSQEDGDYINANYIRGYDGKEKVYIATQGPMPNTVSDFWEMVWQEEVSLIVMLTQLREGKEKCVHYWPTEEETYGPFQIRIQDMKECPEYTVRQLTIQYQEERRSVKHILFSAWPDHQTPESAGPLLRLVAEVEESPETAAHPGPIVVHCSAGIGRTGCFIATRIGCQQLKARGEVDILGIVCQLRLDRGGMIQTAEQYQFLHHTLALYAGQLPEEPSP

Experiment [9] addresses T3, Delta-type opioid receptor. Description: Counterscreen for agonists of heterodimerization of the mu 1 (OPRM1) and delta 1 (OPRD1) opioid receptors: Luminescence-based cell-based high throughput dose response assay to identify agonists of OPRD1 homodimerization. [Related pubchem assays (depositor defined):AID504326, AID504355, AID504692, AID504904, AID504905]. On the technique in general: Counterscreens check selectivity or assay interference.

Experiment [10] addresses T4, Mu-type opioid receptor. Description: Counterscreen for agonists of heterodimerization of the mu 1 (OPRM1) and delta 1 (OPRD1) opioid receptors: Luminescence-based cell-based high throughput dose response assay to identify agonists of OPRM1 homodimerization.
In experiment [11] the target is 5-hydroxytryptamine receptor 5A (Homo sapiens, UniProt P47898). The experiment is described as follows: Counterscreen for agonists of OPRM1-OPRD1 heterodimerization: luminescence-based cell-based high throughput dose response assay to identify agonists of 5-hydroxytryptamine (serotonin) 5A receptor (HTR5A). [Related pubchem assays (depositor defined):AID504326, AID504355, AID504692, AID504904, AID504905].
Sequence of 5-hydroxytryptamine receptor 5A (P47898 whole entry): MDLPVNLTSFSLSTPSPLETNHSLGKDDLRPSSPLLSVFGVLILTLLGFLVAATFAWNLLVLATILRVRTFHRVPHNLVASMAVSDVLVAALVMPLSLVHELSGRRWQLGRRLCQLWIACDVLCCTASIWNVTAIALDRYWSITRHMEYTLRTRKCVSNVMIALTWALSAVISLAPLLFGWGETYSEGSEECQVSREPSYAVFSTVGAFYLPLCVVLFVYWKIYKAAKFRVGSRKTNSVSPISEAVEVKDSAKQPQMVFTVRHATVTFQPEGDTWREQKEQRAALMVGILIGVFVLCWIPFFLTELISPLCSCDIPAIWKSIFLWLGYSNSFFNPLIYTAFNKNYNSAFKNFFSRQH

The source made the active and inactive calls.

T2 sequence (P41145 whole entry): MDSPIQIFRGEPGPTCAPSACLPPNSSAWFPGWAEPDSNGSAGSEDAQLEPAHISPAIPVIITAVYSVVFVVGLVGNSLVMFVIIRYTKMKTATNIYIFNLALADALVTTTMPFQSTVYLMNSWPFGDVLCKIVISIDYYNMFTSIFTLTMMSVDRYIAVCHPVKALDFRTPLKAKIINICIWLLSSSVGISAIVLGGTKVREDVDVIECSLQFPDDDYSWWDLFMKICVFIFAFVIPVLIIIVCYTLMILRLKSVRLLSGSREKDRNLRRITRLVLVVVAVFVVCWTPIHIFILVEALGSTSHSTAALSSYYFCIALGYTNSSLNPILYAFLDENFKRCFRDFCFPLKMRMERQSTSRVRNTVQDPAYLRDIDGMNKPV

As usually defined, the IC50 is the concentration needed to halve the response being measured. As to `O=C(C1CCN(c2ncnc3c2nc2n3CCCCC2)CC1)N1CCN(c2cccc(Cl)c2)CC1`, the IC50 is 22.6 µM (inactive) at Cysteine protease ATG4B and 11.1 µM (active) at Phospholipase A2.

Broadly, the EC50 is the concentration giving half of the maximal effect. On to `CCOc1ccc2nc(N3C(=O)CNC3=S)sc2c1`, for which the figures for the concentration for half-maximal inhibition (IC50) in [1], in experiment [3] and in experiment [4] were more than 32 µM, 16.4 µM (active) and > 32 µM (inactive), respectively. Further, the values for the EC50 (in experiment [2]; at Beta-galactosidase; at Mu-type opioid receptor [5]) were > 32 µM (inactive), > 31.5 µM (inactive) and > 32 µM (inactive), respectively.

Turning to `CS(=O)(=O)N1CCc2ccc(NC(=O)C3CCCO3)cc2C1` (configuration not stated), the IC50 in experiment [6], in [7] and in [8] was > 79.4 µM (inactive) in each case.

In the case of `CN(C)C(CNC(=O)c1cc2ccccc2o1)c1ccco1` (configuration not stated), the EC50 (in experiment [9]; on Mu-type opioid receptor [10]; in [11]) was > 92.5 µM (inactive) in each case.

As for `COC(=O)N/N=C(\C)c1ccc2ccccc2c1OC(F)F`, the IC50 in experiment [6], in [7] and in [8] was > 79.4 µM (inactive) throughout.
